The record followed here is patent US7659289B2, “Hydroxyethylene-based β-secretase inhibitors and use thereof” (CoMentis, Inc., priority 2004, dated 2010).

Some results are limits rather than exact numbers.

For one test, the target named is memapsin 2 (Homo sapiens, UniProt P56817). Put plainly: Inhibition of memapsin 2 beta-secretase activity toward fluorogenic substrate FS-2. It is filed as biochemical. As to conditions: pH 4, 37° C., 20 minutes pre-incubation, fluorogenic substrate FS-2, tight-binding model; read-out: M2 Ki.
Chain of memapsin 2 (P56817 46-501): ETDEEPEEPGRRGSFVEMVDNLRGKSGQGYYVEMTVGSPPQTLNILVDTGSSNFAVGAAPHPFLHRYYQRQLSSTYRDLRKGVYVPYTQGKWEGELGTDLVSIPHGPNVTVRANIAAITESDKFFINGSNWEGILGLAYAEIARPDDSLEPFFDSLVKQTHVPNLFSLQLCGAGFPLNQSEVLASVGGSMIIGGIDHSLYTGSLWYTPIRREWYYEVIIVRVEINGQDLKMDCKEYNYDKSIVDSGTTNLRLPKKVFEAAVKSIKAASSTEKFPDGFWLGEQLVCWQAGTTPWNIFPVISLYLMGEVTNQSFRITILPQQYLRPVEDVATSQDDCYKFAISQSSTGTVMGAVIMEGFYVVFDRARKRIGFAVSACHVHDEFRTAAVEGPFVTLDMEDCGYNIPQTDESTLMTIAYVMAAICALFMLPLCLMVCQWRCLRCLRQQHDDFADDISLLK
A further test deals with Cathepsin D (Homo sapiens, UniProt P07339). As to the kind of experiment: Inhibition of cathepsin D activity (MALDI-TOF, substrate peptide […]). It is filed as biochemical. Particulars: pH 4.1, 37 degrees C., read-out: Cath D Ki.
Chain of Cathepsin D (P07339 65-412, species assumed): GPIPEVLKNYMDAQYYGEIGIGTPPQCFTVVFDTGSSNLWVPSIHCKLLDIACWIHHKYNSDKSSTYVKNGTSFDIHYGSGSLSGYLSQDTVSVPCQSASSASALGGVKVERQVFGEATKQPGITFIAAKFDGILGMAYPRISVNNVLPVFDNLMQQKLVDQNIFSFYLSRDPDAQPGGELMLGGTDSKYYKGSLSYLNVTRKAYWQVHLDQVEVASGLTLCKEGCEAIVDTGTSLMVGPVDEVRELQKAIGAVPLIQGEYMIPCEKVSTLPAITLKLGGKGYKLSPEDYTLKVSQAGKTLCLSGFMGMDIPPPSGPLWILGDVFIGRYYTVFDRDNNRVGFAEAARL
For another test, the system named is Aβ production. As to the kind of experiment: Cellular Aβ IC50 determination (Aβ40 sandwich ELISA). It is filed as cell-based. Particulars: Cricetulus griseus; Aβ40, Chinese hamster ovary cells over-expressing human APP695 with London and Swedish mutations, 24 h incubation. The method, then:
The potency of compounds against memapsin 2 activity was determined in a cellular assay of Aβ production. […] Chinese hamster ovary cells that over-express human APP695 with the London and Swedish mutations were seeded in multi-well plates at 10% confluency. Compounds were dissolved in DMSO to concentrations near 1 mM, and diluted into culture media to a final concentration near 4 μM (final 0.4% DMSO). Compounds were diluted serially and applied to cells in multi-well plates 48 h after seeding. Incubation was continued in 5% CO2 at 37 degrees C. for 24 h. Aliquots were removed and assayed for Aβ40 content using a sandwich ELISA (BioSource International). Amount of Aβ40 over the range of concentration of compounds, relative to control incubations, were fit to a 4-parameter IC50 model.
In general terms: An ELISA detects its analyte on a solid surface through an enzyme-linked reagent.

Description for Cathepsin D: After equilibration at 37 degrees C., the reactions were initiated by the addition of an aliquot of memapsin 2. Aliquots were removed at time intervals, and combined with an equal volume of MALDI-TOF matrix (α-hydroxycinnamic acid in acetone, 20 mg/ml) and immediately spotted in duplicate onto a stainless-steel MALDI sample plate. MALDI-TOF mass spectrometry was performed on a PE Biosystems Voyager DE instrument at the Molecular Biology Resource Center on campus. The instrument was operated at 25,000 accelerating volts in positive mode with a 150 ns delay. Ions with a mass-to-charge ratio (m/z) were detected in the range of 650-2000 atomic mass units. Data was analyzed by the Voyager Data Explorer module to obtain ion intensity data for mass species of substrates and corresponding products in a given mixture. Relative product formation was calculated as the ratio of signal intensity of the product to the sum of signal intensities of both product and the corresponding substrate. Relative product formed per unit time was obtained from non-linear regression analysis of the data representing the initial 15% formation of product using the model: 1−e^−kT,
where k is the relative hydrolytic rate constant and T is time in seconds. Initial rates were expressed relative to uninhibited controls and fit to a tight-binding model of competitive inhibition as above.

As a reminder, the Ki is the equilibrium dissociation constant of an inhibitor or competing ligand from its target. What is called IC50 is the concentration at which inhibition is half-maximal. Lower therefore signals greater potency in that assay. As to `Cc1csc(COC(=O)NC[C@H](NC(=O)[C@@H](C)Cc2nc(C)cs2)C(=O)N[C@@H](CC(C)C)[C@@H](O)C[C@@H](C)C(=O)N[C@H](C(=O)NCC(C)C)C(C)C)n1` [(4-methylthiazol-2-yl)methyl (S)-3-((4S,5S,7R)-5-hydroxy-8-((S)-1-(isobutylamino)-3-methyl-1-oxobutan-2-ylamino)-2,7-dimethyl-8-oxooctan-4-ylamino)-2-((S)-2-methyl-3-(4-methylthiazol-2-yl)propanamido)-3-oxopropylcarbamate], the inhibition constant Ki at memapsin 2 and on Cathepsin D was less than 100 nM each time. Also, the IC50 in the test with Aβ production is less than 6000 nM.

For the molecule `Cc1csc(C[C@H](C)C(=O)N[C@@H](CNC(=O)O[C@@H]2CCOC2)C(=O)N[C@@H](CC(C)C)[C@@H](O)C[C@@H](C)C(=O)N[C@H](C(=O)NCC(C)C)C(C)C)n1` [(R)-tetrahydrofuran-3-yl (S)-3-((4S,5S,7R)-5-hydroxy-8-((S)-1-(isobutylamino)-3-methyl-1-oxobutan-2-ylamino)2,7-dimethyl-8-oxooctan-4-ylamino)-2-((S)-2-methyl-3-(4-methylthiazol-2-yl)propanamido)-3-oxopropylcarbamate], the Ki at memapsin 2 and at Cathepsin D was less than 100 nM in each case. The molecule also yielded an IC50 with Aβ production of less than 6000 nM.

As to `Cc1cc(C)n(C[C@H](C)C(=O)N[C@@H](CNC(=O)O[C@H]2CCOC2)C(=O)N[C@@H](CC(C)C)[C@@H](O)C[C@@H](C)C(=O)N[C@H](C(=O)NCC(C)C)C(C)C)n1` [(S)-tetrahydrofuran-3-yl (S)-2-((S)-3-(3,5-dimethyl-1H-pyrazol-1-yl)-2-methylpropanamido)-3-((4S,5S,7R)-5-hydroxy-8-((S)-1-(isobutylamino)-3-methyl-1-oxobutan-2-ylamino)-2,7-dimethyl-8-oxooctan-4-ylamino)-3-oxopropylcarbamate], the Ki on memapsin 2 and at Cathepsin D was less than 100 nM each time. Moreover, the IC50 in the test on Aβ production was 6000 to 100000 nM.

As for `Cc1csc(C[C@H](C)C(=O)N[C@@H](CNC(=O)O[C@H]2CCOC2)C(=O)N[C@@H](CC(C)C)[C@@H](O)C[C@@H](C)C(=O)N[C@H](C(=O)NCC(C)C)C(C)C)n1` [(S)-tetrahydrofuran-3-yl(S)-3-((4S,5S,7R)-5-hydroxy-8-((S)-1-(isobutylamino)-3-methyl-1-oxobutan-2-ylamino)2,7-dimethyl-8-oxooctan-4-ylamino)-2-((S)-2-methyl-3-(4-methylthiazol-2-yl)propanamido)-3-oxopropylcarbamate], the Ki on memapsin 2 and at Cathepsin D was less than 100 nM in each case. The IC50 in the test with Aβ production is less than 6000 nM.

As to `CC[C@@H](Cc1nc(C)cs1)C(=O)N[C@@H](CNC(=O)OC(C)C)C(=O)N[C@@H](CC(C)C)[C@@H](O)C[C@@H](C)C(=O)N[C@H](C(=O)NCC(C)C)C(C)C` [isoproyl (S)-3-((4S,5S,7R)-5-hydroxy-8-((S)-1-(isobutylamino)-3-methyl-1-oxobutan-2-ylamino)-2,7-dimethyl-8-oxooctan-4-ylamino)-2-((S)-2-((4-methylthiazol-2-yl)methyl)butanamido)-3-oxopropylcarbamate], the Ki at memapsin 2 and on Cathepsin D was less than 100 nM throughout. In the test with Aβ production, this molecule returned an IC50 of less than 6000 nM.

`COC(=O)NC[C@H](NC(=O)[C@@H](C)Cc1nc(C)cs1)C(=O)N[C@@H](CC(C)C)[C@@H](O)C[C@@H](C)C(=O)N[C@H](C(=O)NCC(C)C)C(C)C` [methyl (S)-3-((4S,5S,7R)-5-hydroxy-8-((S)-1-(isobutylamino)-3-methyl-1-oxobutan-2-ylamino)-2,7-dimethyl-8-oxooctan-4-ylamino)-2-((S)-2-methyl-3-(4-methylthiazol-2-yl)propanamido)-3-oxopropylcarbamate]: the Ki on memapsin 2 and on Cathepsin D was less than 100 nM in each case. Further, the IC50 with Aβ production is less than 6000 nM.

Regarding `Cc1cc(C)n(CC(N)C(=O)N[C@@H](CNC(=O)OC(C)(C)C)C(=O)N[C@@H](CC(C)C)[C@@H](O)C[C@@H](C)C(=O)N[C@H](C(=O)NCC(C)C)C(C)C)n1` (stereo partly drawn) [tert-butyl (2S)-2-(2-amino-3-(3,5-dimethyl-1H-pyrazol-1-yl)propanamido)-3-((4S,5S,7R)-5-hydroxy-8-((S)-1-(isobutylamino)-3-methyl-1-oxobutan-2-ylamino)-2,7-dimethyl-8-oxooctan-4-ylamino)-3-oxopropylcarbamate], the Ki on memapsin 2 and on Cathepsin D was 100 to 600 nM each time. For the same molecule, the IC50 in the test with Aβ production was greater than 100000 nM.

Take `Cc1cc(C)n(CC(N=[N+]=[N-])C(=O)N[C@@H](CNC(=O)OC(C)(C)C)C(=O)N[C@@H](CC(C)C)[C@@H](O)C[C@@H](C)C(=O)N[C@H](C(=O)NCC(C)C)C(C)C)n1` (stereo partly drawn) [tert-butyl (2S)-2-(2-azido-3-(3,5-dimethyl-1H-pyrazol-1-yl)propanamido)-3-((4S,5S,7R)-5-hydroxy-8-((S)-1-(isobutylamino)-3-methyl-1-oxobutan-2-ylamino)-2,7-dimethyl-8-oxooctan-4-ylamino)-3-oxopropylcarbamate]: the inhibition constant (Ki) at memapsin 2 was 100 to 600 nM; at Cathepsin D it was less than 100 nM. In addition, the IC50 in the test on Aβ production is 6000 to 100000 nM.

For `COC(Cn1nc(C)cc1C)C(=O)N[C@@H](CNC(=O)OC(C)(C)C)C(=O)N[C@@H](CC(C)C)[C@@H](O)C[C@@H](C)C(=O)N[C@H](C(=O)NCC(C)C)C(C)C` (stereo partly drawn) [tert-butyl (2S)-2-(3-(3,5-dimethyl-1H-pyrazol-1-yl)-2-methoxypropanamido)-3-((4S,5S,7R)-5-hydroxy-8-((S)-1-(isobutylamino)-3-methyl-1-oxobutan-2-ylamino)-2,7-dimethyl-8-oxooctan-4-ylamino)-3-oxopropylcarbamate], the Ki on memapsin 2 is 100 to 600 nM; at Cathepsin D it was less than 100 nM. This molecule registered an IC50 with Aβ production greater than 100000 nM.

Regarding `CC[C@@H](Cn1nc(C)cc1C)C(=O)N[C@@H](CNC(=O)OC(C)(C)C)C(=O)N[C@@H](CC(C)C)[C@@H](O)C[C@@H](C)C(=O)N[C@H](C(=O)NCC(F)(F)F)C(C)C` [tert-butyl (S)-2-((S)-2-((3,5-dimethyl-1H-pyrazol-1-yl)methyl)butanamido)-3-((4S,5S,7R)-5-hydroxy-2,7-dimethyl-8-((S)-3-methyl-1-oxo-1-(2,2,2-trifluoroethylamino)butan-2-ylamino)-8-oxooctan-4-ylamino)-3-oxopropylcarbamate], the Ki on memapsin 2 and on Cathepsin D was less than 100 nM in each case. Further, in the test on Aβ production, the half-maximal inhibitory concentration (IC50) fell in the range of 6000 to 100000 nM.

On to `CC[C@@H](Cn1nc(C)cc1C)C(=O)N[C@@H](CNC(=O)OC(C)(C)C)C(=O)N[C@@H](CC(C)C)[C@@H](O)C[C@@H](C)C(=O)N[C@H](C(=O)NCC(C)C)C(C)C` [tert-butyl (S)-2-((S)-2-((3,5-dimethyl-1H-pyrazol-1-yl)methyl)butanamido)-3-((4S,5S,7R)-5-hydroxy-8-((S)-1-(isobutylamino)-3-methyl-1-oxobutan-2-ylamino)-2,7-dimethyl-8-oxooctan-4-ylamino)-3-oxopropylcarbamate], for which the Ki at memapsin 2 and on Cathepsin D was less than 100 nM each time. Further, in the test with Aβ production, the IC50 was less than 6000 nM.

`Cc1nc(C[C@H](C)C(=O)N[C@@H](CNC(=O)OC(C)(C)C)C(=O)N[C@@H](CC(C)C)[C@@H](O)C[C@@H](C)C(=O)N[C@H](C(=O)NCC(C)C)C(C)C)c(C)o1` [tert-butyl (S)-2-((S)-3-(2,5-dimethyloxazol-4-yl)-2-methylpropanamido)-3-((4S,5S,7R)-5-hydroxy-8-((S)-1-(isobutylamino)-3-methyl-1-oxobutan-2-ylamino)-2,7-dimethyl-8-oxooctan-4-ylamino)-3-oxopropylcarbamate]: the Ki at memapsin 2 and on Cathepsin D was less than 100 nM each time. In addition, the IC50 with Aβ production was less than 6000 nM.

With `Cc1csc(C[C@H](C)C(=O)N[C@@H](CNC(=O)OC(C)(C)C)C(=O)N[C@@H](CC(C)C)[C@@H](O)C[C@@H](C)C(=O)N[C@H](C(=O)NCc2ccncc2)C(C)C)n1` [tert-butyl (S)-3-(4S,5S,7R)-hydromxy-2,7-dimethyl-8-((S)-3-methyl-1-oxo-1-(pyridin-4-ylmethylamino)butan-2-ylamino)-8-oxooctan-4-ylamino)-2-((S)-2-methyl-3-(4-methylthiazol-2-yl)propanamido)-3-oxopropylcarbamate], the inhibitory constant (Ki) was less than 100 nM at memapsin 2 and 100 to 600 nM on Cathepsin D. Further, in the test on Aβ production, the IC50 was less than 6000 nM.

Regarding `Cc1csc(C[C@H](C)C(=O)N[C@@H](CNC(=O)OC(C)(C)C)C(=O)N[C@@H](Cc2ccccc2)[C@@H](O)C[C@@H](C)C(=O)N[C@H](C(=O)NCC(C)C)C(C)C)n1` [tert-butyl (S)-3-((2S,3S,5 R)-3-hydroxy-6-((S)-1-(isobutylamino)-3-methyl-1-oxobutan-2-ylamino)-5-methyl-6-oxo-1-phenylhexan-2-ylamino)-2-((S)-2-methyl-3-(4-methylthiazol-2-yl)propanamido)-3-oxopropylcarbamate], the Ki on memapsin 2 and on Cathepsin D was less than 100 nM each time. The IC50 in the test on Aβ production lay in the range of 6000 to 100000 nM.

Regarding `CC[C@H](C[C@H](O)[C@H](CC(C)C)NC(=O)[C@H](CNC(=O)OC(C)(C)C)NC(=O)[C@@H](C)Cc1nc(C)cs1)C(=O)N[C@H](C(=O)NCC(C)C)C(C)C` [tert-butyl (S)-3-((4S,5S,7R)-5-hydroxy-7-((S)-1-(isobutylamino)-3-methyl-1-oxobutan-2-ylcarbamoyl)-2-methylnonan-4-ylamino)-2-((S)-2-methyl-3-(4-methylthiazol-2-yl)propanamido)-3-oxopropylcarbamate], the inhibition constant Ki at memapsin 2 and on Cathepsin D was less than 100 nM each time. Moreover, the IC50 with Aβ production is less than 6000 nM.
